Measurements as given in PubChem BioAssay (NCI).
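Test compounds were applied to cells in 96-well plates for 48 hours at 5 doses. GI50 marks 50% less growth. TGI is the concentration that stops growth completely.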

Tests used:
Assay in all cases: growth of human tumour cells (NCI), 48 h; in the data active = GI50 below about 0.43 µM; inactive = the rest
[1] = tested on: NCI-H460 lung
[2] = tested on: HL-60(TB) leukemia
[3] = tested on: OVCAR-5 ovarian
[4] = tested on: UO-31 renal
[5] = tested on: OVCAR-3 ovarian
[6] = tested on: HOP-92 NSCLC
[7] = tested on: MOLT-4 leukemia
[8] = tested on: SW-620 colon
[9] = tested on: SNB-75 CNS
[10] = tested on: DU-145 prostate
[11] = tested on: MALME-3M melanoma
[12] = tested on: A498 renal
[13] = tested on: HCT-116 colon
[14] = tested on: NCI-H522 lung
[15] = tested on: NCI-H23 lung
[16] = tested on: A549 NSCLC
[17] = tested on: SNB-19 CNS
[18] = tested on: CAKI-1 renal
[19] = tested on: BT-549 breast
[20] = tested on: NCI-H226 lung
[21] = tested on: MCF7 breast
[22] = tested on: KM12 colon
[23] = tested on: 786-0 renal
[24] = tested on: MDA-MB-435
[25] = tested on: SK-OV-3 ovarian
[26] = tested on: HS 578T breast
[27] = tested on: COLO 205 colon
[28] = tested on: NCI/ADR-RES ovarian
[29] = tested on: TK-10 renal
[30] = tested on: SN12C renal
[31] = tested on: M14 melanoma
[32] = tested on: HCT-15 colon
[33] = tested on: SF-295 CNS
[34] = tested on: EKVX NSCLC
[35] = tested on: HOP-62 NSCLC
[36] = tested on: HCC-2998 colon
[37] = tested on: T-47D breast
[38] = tested on: SK-MEL-28 melanoma
[39] = tested on: RPMI-8226 leukemia
[40] = tested on: SR leukemia
[41] = tested on: HT29 colon
[42] = tested on: IGROV1 ovarian
[43] = tested on: UACC-62 melanoma
[44] = tested on: OVCAR-8 ovarian
[45] = tested on: SF-539 CNS
[46] = tested on: SK-MEL-5 melanoma
[47] = tested on: UACC-257 melanoma
[48] = tested on: MDA-MB-231 breast
[49] = tested on: SF-268 CNS
[50] = tested on: CCRF-CEM leukemia
[51] = tested on: PC-3 prostate
[52] = tested on: ACHN renal
[53] = tested on: K-562 leukemia
[54] = tested on: OVCAR-4 ovarian
[55] = tested on: LOX IMVI melanoma
[56] = tested on: RXF 393 renal
[57] = tested on: SK-MEL-2 melanoma
[58] = tested on: U251 CNS

COc1ccc(Nc2c3ccccc3nc3occ(Cl)c23)cc1
13.6 µM: TGI [51]
0.571 µM: TGI [39]
6.92 µM: TGI [14]
3.95 µM: TGI [16]
8.18 µM: TGI [1]
26.2 µM: TGI [19]
6.89 µM: TGI [34]
active: GI50 [1] < 0.01 µM | GI50 [2] < 0.01 µM | GI50 [3] 0.269 µM | GI50 [4] 0.346 µM | GI50 [5] < 0.01 µM | GI50 [6] 0.0165 µM | GI50 [7] 0.0266 µM | GI50 [8] < 0.01 µM | GI50 [9] 0.0908 µM | GI50 [10] 0.0874 µM | GI50 [11] 0.0124 µM | GI50 [12] < 0.01 µM | GI50 [13] < 0.01 µM | GI50 [14] < 0.0119 µM | GI50 [15] 0.0549 µM | GI50 [16] < 0.0112 µM | GI50 [18] < 0.01 µM | GI50 [21] < 0.01 µM | GI50 [22] < 0.01 µM | GI50 [23] 0.0335 µM | GI50 [24] < 0.01 µM | GI50 [26] 0.0237 µM | GI50 [27] < 0.01 µM | GI50 [28] < 0.01 µM | GI50 [29] 0.0228 µM | GI50 [30] 0.0858 µM | GI50 [31] 0.0287 µM | GI50 [32] < 0.01 µM | GI50 [33] < 0.01 µM | GI50 [35] < 0.0156 µM | GI50 [36] < 0.01 µM | GI50 [37] 0.0883 µM | GI50 [38] 0.0265 µM | GI50 [39] 0.0145 µM | GI50 [40] < 0.01 µM | GI50 [41] < 0.0145 µM | GI50 [42] 0.0634 µM | GI50 [43] 0.0104 µM | GI50 [44] 0.0476 µM | GI50 [45] < 0.0167 µM | GI50 [46] < 0.01 µM | GI50 [47] 0.0159 µM | GI50 [48] < 0.01 µM | GI50 [49] 0.0368 µM | GI50 [50] 0.0199 µM | GI50 [51] < 0.01 µM | GI50 [53] < 0.01 µM
42.4 µM: TGI [43]
4.89 µM: TGI [27]
3.29 µM: TGI [13]
1.39 µM: TGI [45]
22 µM: TGI [10]
13.3 µM: TGI [47]
21 µM: TGI [23]
0.0909 µM: TGI [36]
> 44.5 µM: TGI [7]
8.36 µM: TGI [40]
19.1 µM: TGI [35]
4.1 µM: TGI [22]
0.121 µM: TGI [12]
61.3 µM: TGI [26]
> 34.8 µM: TGI [41]
19 µM: TGI [30]
0.416 µM: TGI [50]
inactive: GI50 [17] 0.48 µM | GI50 [19] 2.05 µM | GI50 [20] 25.1 µM | GI50 [25] 0.765 µM | GI50 [34] 1.76 µM | GI50 [52] 1.44 µM | GI50 [54] 0.73 µM
19.5 µM: TGI [31]
8.67 µM: TGI [29]
0.0648 µM: TGI [48]
> 86.6 µM: TGI [54]
0.521 µM: TGI [46]
> 77.2 µM: TGI [42]
16.3 µM: TGI [18]
0.547 µM: TGI [2]
> 35.1 µM: TGI [53]
14.7 µM: TGI [11]
18.4 µM: TGI [8]
0.0558 µM: TGI [33]
28.8 µM: TGI [15]
> 33.2 µM: TGI [21]
26.9 µM: TGI [4]
7.17 µM: TGI [6]
2.09 µM: TGI [28]
< 0.0317 µM: TGI [24]
21.1 µM: TGI [38]
> 38.2 µM: TGI [17]
> 100 µM: TGI [3] | TGI [9] | TGI [20] | TGI [37] | TGI [52]
< 0.0166 µM: TGI [5]
21.5 µM: TGI [49]

O=C(Nc1ccc(-c2ccccc2)cc1)C1CCN(S(=O)(=O)c2ccccc2Cl)CC1
37.3 µM: TGI [45]
57.1 µM: TGI [44]
56.3 µM: TGI [19]
60.3 µM: TGI [29]
91.2 µM: TGI [6]
71.4 µM: TGI [26]
inactive: GI50 [1] 40.8 µM | GI50 [2] > 100 µM | GI50 [3] 50 µM | GI50 [4] 66.2 µM | GI50 [5] 41.9 µM | GI50 [55] 27.7 µM | GI50 [56] 2.09 µM | GI50 [6] 32.2 µM | GI50 [7] > 100 µM | GI50 [8] 82.3 µM | GI50 [9] 36.5 µM | GI50 [10] 27.9 µM | GI50 [13] 39.4 µM | GI50 [14] 22.4 µM | GI50 [15] 76.2 µM | GI50 [16] 29.5 µM | GI50 [17] > 100 µM | GI50 [18] 53 µM | GI50 [19] 13.9 µM | GI50 [20] 30.2 µM | GI50 [21] 41.2 µM | GI50 [22] 36.7 µM | GI50 [23] 23.6 µM | GI50 [24] > 100 µM | GI50 [25] 57.4 µM | GI50 [26] 12.6 µM | GI50 [27] > 100 µM | GI50 [57] 49.7 µM | GI50 [28] 37.1 µM | GI50 [29] 20.6 µM | GI50 [30] 26.9 µM | GI50 [31] 64.1 µM | GI50 [32] 77.4 µM | GI50 [33] 24.4 µM | GI50 [34] 73.5 µM | GI50 [58] 18.8 µM | GI50 [35] 18.8 µM | GI50 [36] 59.2 µM | GI50 [37] > 100 µM | GI50 [38] > 100 µM | GI50 [39] 42 µM | GI50 [40] 36.2 µM | GI50 [41] > 100 µM | GI50 [42] 21.4 µM | GI50 [43] 39.8 µM | GI50 [44] 22.7 µM | GI50 [45] 12 µM | GI50 [46] 69.3 µM | GI50 [47] 28.1 µM | GI50 [48] 18.2 µM | GI50 [49] 39 µM | GI50 [50] 74.2 µM | GI50 [51] 38 µM | GI50 [52] 21.9 µM | GI50 [53] 71.8 µM | GI50 [54] 22.3 µM
40.9 µM: TGI [35]
57 µM: TGI [52]
77.9 µM: TGI [23]
67.3 µM: TGI [58]
47.3 µM: TGI [48]
> 100 µM: TGI [1] | TGI [2] | TGI [3] | TGI [4] | TGI [5] | TGI [55] | TGI [7] | TGI [8] | TGI [9] | TGI [10] | TGI [13] | TGI [14] | TGI [15] | TGI [16] | TGI [17] | TGI [18] | TGI [20] | TGI [21] | TGI [22] | TGI [24] | TGI [25] | TGI [27] | TGI [57] | TGI [28] | TGI [31] | TGI [32] | TGI [33] | TGI [34] | TGI [36] | TGI [37] | TGI [38] | TGI [39] | TGI [40] | TGI [41] | TGI [42] | TGI [43] | TGI [46] | TGI [47] | TGI [49] | TGI [50] | TGI [51] | TGI [53] | TGI [54]
90.2 µM: TGI [30]
5 µM: TGI [56]
